# Measurements as given in publication PMC9090415, “Discovery of small molecule inhibitors of Plasmodium falciparum apicoplast DNA polymerase” (Journal of Enzyme Inhibition and Medicinal Chemistry, 2022).
# pIC50: −log10 of the molar value.
# Biological target: P. falciparum apicoplast DNA polymerase (Pf-apPOL) (Plasmodium falciparum, UniProt Q8ILY1)
# Test: Fluorescence-based high-throughput DNA polymerase assay (molecular beacon), primary screen and dose-response
# Type: biochemical
# Settings: for DNA Pol: 90 min, 10 µM
# Procedure: The HT assay employs a molecular beacon, a stem-loop DNA template with a Cy3 dye and the Black Hole Quencher on the 3′ and 5′ ends of the DNA, respectively. Pf-apPOL concentration is based on a calculated absorptivity of ε280 = 56750 M^−1 cm^−1. Reactions were carried out at 25 °C, using Corning 3575 […] (well-volume, 20 µL). Assays testing for compound inhibition composed of reaction buffer (pH 7.9 in 50 mM potassium acetate, 20 mM Tris-acetate and 10 mM magnesium acetate), Pf-apPOL (20 nM), DNA substrate (20 nM), dNTPs (6 µM), and compound (10 µM in DMSO). The DNA and nucleotide substrates (dNTPs) were at concentrations of 20 nM and 6 µM, respectively, in the assay. Pf-apPOL was incubated in the reaction buffer with dNTPs and the compound of interest (10 µM, in the assay) at 25 °C for 10 min. The DNA substrate was then added and the reaction was allowed to proceed for 90 min at 25 °C.
# Each assay plate contained 16 negative controls (no Pf-apPOL, DMSO present) and 16 positive controls (Pf-apPOL present, no DMSO). The fluorescence of each well was determined using a BioTek Synergy Neo fluorescence plate reader using excitation and emission wavelengths of 555 and 570 nm, respectively.
# In the above, Min is the average of fluorescence emission of the negative controls (substrate only), Max the average fluorescence emission from the positive controls (enzyme + substrate), and Test the emission from the assays in the presence of compounds (enzyme + compound + substrates). […] […] The IC50 of each compound was determined using Equation (2): (2) IC50= Vmax/(1+ (I/IC50)^n)
# In the above, n measures cooperativity, with n > 1 indicating synergistic binding of more than a single molecule of the compound.
# To identify apPOL inhibitors we utilised our previously developed high-throughput DNA polymerase assay. The HT assay is based on a molecular beacon DNA template that forms a stem-loop with a Cy3 dye and the Black Hole Quencher on the 3′ and 5′ ends of the DNA, respectively. DNA polymerase activity extends an annealed primer through the stem region, displacing the fluorophore from the quencher, thereby increasing its fluorescence (Figure 1(A)). The assay accurately recapitulates the kinetic behaviour of apPOL, as measured through more conventional low-throughput gel-based assays. The Z′ factor for the assay described here was 0.9 across all plates (data not shown).
# Figure 1. High-throughput screening. (A) The fluorescent-based DNA polymerase assay used to screen the compound libraries. The DNA template strand is a hairpin loop with a primer annealed to the loop. The 3’ end of the primer is 11 bases away from the 6 bp duplex. Strand displacement activity of the DNA polymerase separates the Cy3 dye from the Black hole quencher leading to an increase in fluorescent signal. (B) The high-throughput assay workflow. The DNA polymerase is incubated with […] compound for 10 min prior to addition of the hairpin substrate. The reaction is quenched at 3 different time points and the fluorescent signal is measured and % inhibition is determined using the provided equation.
# Chain of P. falciparum apicoplast DNA polymerase (Pf-apPOL) (Q8ILY1 entry or part of it): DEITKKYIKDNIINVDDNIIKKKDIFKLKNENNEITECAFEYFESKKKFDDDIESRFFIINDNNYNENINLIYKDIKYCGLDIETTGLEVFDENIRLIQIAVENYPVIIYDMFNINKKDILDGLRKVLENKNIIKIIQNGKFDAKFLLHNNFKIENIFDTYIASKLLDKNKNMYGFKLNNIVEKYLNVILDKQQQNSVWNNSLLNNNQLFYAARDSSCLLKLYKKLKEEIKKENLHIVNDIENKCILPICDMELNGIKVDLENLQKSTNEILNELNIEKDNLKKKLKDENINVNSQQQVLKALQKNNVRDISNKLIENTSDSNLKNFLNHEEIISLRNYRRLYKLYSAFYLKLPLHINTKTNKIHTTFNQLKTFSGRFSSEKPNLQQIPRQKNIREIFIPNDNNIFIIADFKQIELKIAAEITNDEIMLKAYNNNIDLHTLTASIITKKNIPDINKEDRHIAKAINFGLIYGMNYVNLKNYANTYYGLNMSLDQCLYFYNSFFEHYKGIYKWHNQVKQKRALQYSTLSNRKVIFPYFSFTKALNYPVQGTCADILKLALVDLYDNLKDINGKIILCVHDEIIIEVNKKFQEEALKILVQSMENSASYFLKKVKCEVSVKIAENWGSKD
structure (smiles),measurement,setting,value
"Cc1ccc(C)c(CSc2nc(C3CCCCC3)c(C#N)c(=O)[nH]2)c1 [Molecule 6, N#Cc1c(=O)[nH]c(nc1C1CCCCC1)SCc1cc(C)ccc1C]",DNA Pol,"'DNA Pol' of the 186 hits list (primary screen result), unit not given",98
same,% inhibition Apo pol 10',"DRC-1, concentration 2.5",19.6577%
same,% inhibition Apo pol 10',"DRC-1, concentration 5",38.2184%
same,% inhibition Apo pol 10',"DRC-1, concentration 10",71.2419%
same,% inhibition Apo pol 10',"DRC-1, concentration 20",88.8023%
same,% inhibition Apo pol 10',"DRC-1, concentration 40",92.9931%
same,% inhibition Apo pol 10',"DRC-1, concentration 80",97.5171%
same,% inhibition Apol 90',"DRC-1, 90', concentration 2.5",7.563%
same,% inhibition Apol 90',"DRC-1, 90', concentration 5",29.5473%
same,% inhibition Apol 90',"DRC-1, 90', concentration 10",66.2339%
same,% inhibition Apol 90',"DRC-1, 90', concentration 20",83.4926%
same,% inhibition Apol 90',"DRC-1, 90', concentration 40",89.6774%
same,% inhibition Apol 90',"DRC-1, 90', concentration 80",97.7776%
same,% inhibition apPOL 180',"DRC-1, 180', concentration 2.5",-0.2009%
same,% inhibition apPOL 180',"DRC-1, 180', concentration 5",17.3135%
same,% inhibition apPOL 180',"DRC-1, 180', concentration 10",54.7895%
same,% inhibition apPOL 180',"DRC-1, 180', concentration 20",77.2836%
same,% inhibition apPOL 180',"DRC-1, 180', concentration 40",85.5131%
same,% inhibition apPOL 180',"DRC-1, 180', concentration 80",97.5591%
same,% inhibition Apol 40',"DRC-2, 40', concentration 2.5 (unit not given)",13%
same,% inhibition ApPOL 90',"DRC-2, 90', concentration 40 (unit not given)",80%
same,% inhibition apPOL 180',"DRC-2, 180', concentration 5 (unit not given)",10%
same,% inhibition apPOL 180',"DRC-2, 180', concentration 40 (unit not given)",80%
same,% inhibition apPOL 180',"DRC-2, 180', concentration 80 (unit not given)",80%
same,% inhibition Apo pol 5',"DRC-2, concentration 2.5",9%
same,% inhibition Apo pol 5',"DRC-2, concentration 5",13%
same,% inhibition Apo pol 5',"DRC-2, concentration 5 (unit not given)",13%
same,% inhibition Apo pol 5',"DRC-2, concentration 20",59%
same,% inhibition Apo pol 5',"DRC-2, concentration 40",63%
same,% inhibition Apo pol 5',"DRC-2, concentration 80",61%
same,% inhibition Apol 40',"DRC-2, 40', concentration 2.5",13%
same,% inhibition Apol 40',"DRC-2, 40', concentration 5",18%
same,% inhibition Apol 40',"DRC-2, 40', concentration 10",51%
same,% inhibition Apol 40',"DRC-2, 40', concentration 20",69%
same,% inhibition Apol 40',"DRC-2, 40', concentration 40",77%
same,% inhibition Apol 40',"DRC-2, 40', concentration 80",75%
same,% inhibition ApPOL 90',"DRC-2, 90', concentration 2.5",10%
same,% inhibition ApPOL 90',"DRC-2, 90', concentration 2.5 (unit not given)",10%
same,% inhibition ApPOL 90',"DRC-2, 90', concentration 5",16%
same,% inhibition ApPOL 90',"DRC-2, 90', concentration 10",50%
same,% inhibition ApPOL 90',"DRC-2, 90', concentration 20",71%
same,% inhibition ApPOL 90',"DRC-2, 90', concentration 40",80%
same,% inhibition ApPOL 90',"DRC-2, 90', concentration 80",78%
same,% inhibition apPOL 180',"DRC-2, 180', concentration 2.5",5.53%
same,% inhibition apPOL 180',"DRC-2, 180', concentration 5",10%
same,% inhibition apPOL 180',"DRC-2, 180', concentration 20",67%
same,% inhibition apPOL 180',"DRC-2, 180', concentration 40",80%
same,% inhibition apPOL 180',"DRC-2, 180', concentration 80",80%
same,DNA Pol,"primary screen value of the library well, unit not given",98
Cc1ccc(N2NC(=O)/C(=C\c3ccc(O)c([N+](=O)[O-])c3)C2=O)cc1Cl [KU0058427],DNA Pol,'DNA Pol' of the 186 hits list (screen value),41
same,% inhibition Apo pol 10',"DRC-1, conc 2.5",22.1005%
same,% inhibition Apo pol 10',"DRC-1, conc 5",22.1201%
same,% inhibition Apo pol 10',"DRC-1, conc 10",57.6403%
same,% inhibition Apo pol 10',"DRC-1, conc 20",74.2262%
same,% inhibition Apo pol 10',"DRC-1, conc 40",90.9483%
same,% inhibition Apo pol 10',"DRC-1, conc 80",95.3494%
same,% inhibition Apol 90',"DRC-1, 90', conc 2.5",11.8681%
same,% inhibition Apol 90',"DRC-1, 90', conc 5",11.4719%
same,% inhibition Apol 90',"DRC-1, 90', conc 10",38.0061%
same,% inhibition Apol 90',"DRC-1, 90', conc 20",55.0808%
same,% inhibition Apol 90',"DRC-1, 90', conc 40",83.5201%
same,% inhibition Apol 90',"DRC-1, 90', conc 80",94.8173%
same,% inhibition apPOL 180',"DRC-1, 180', conc 2.5",4.9901%
same,% inhibition apPOL 180',"DRC-1, 180', conc 5",2.877%
same,% inhibition apPOL 180',"DRC-1, 180', conc 10",25.4818%
same,% inhibition apPOL 180',"DRC-1, 180', conc 20",38.9214%
same,% inhibition apPOL 180',"DRC-1, 180', conc 40",73.2638%
same,% inhibition apPOL 180',"DRC-1, 180', conc 80",93.9984%
same,% inhibition Apo pol 5',"DRC-2, conc 2.5",11%
same,% inhibition Apo pol 5',"DRC-2, conc 5",21%
same,% inhibition Apo pol 5',"DRC-2, conc 10",35%
same,% inhibition Apo pol 5',"DRC-2, conc 20",44%
same,% inhibition Apo pol 5',"DRC-2, conc 40",54%
same,% inhibition Apo pol 5',"DRC-2, conc 80",56%
same,% inhibition Apo pol 5',"DRC-2, concentration 2.5",11%
same,% inhibition Apo pol 5',"DRC-2, concentration 20",44%
same,% inhibition Apol 40',"DRC-2, 40', conc 2.5",11%
same,% inhibition Apol 40',"DRC-2, 40', conc 5",20%
same,% inhibition Apol 40',"DRC-2, 40', conc 10",34%
same,% inhibition Apol 40',"DRC-2, 40', conc 20",46%
same,% inhibition Apol 40',"DRC-2, 40', conc 40",64%
same,% inhibition Apol 40',"DRC-2, 40', conc 80",74%
same,% inhibition Apol 40',"DRC-2, 40', concentration 2.5",11%
same,% inhibition Apol 40',"DRC-2, 40', concentration 5",20%
same,% inhibition ApPOL 90',"DRC-2, 90', conc 2.5",9%
same,% inhibition ApPOL 90',"DRC-2, 90', conc 5",19%
same,% inhibition ApPOL 90',"DRC-2, 90', conc 10",28%
same,% inhibition ApPOL 90',"DRC-2, 90', conc 20",44%
same,% inhibition ApPOL 90',"DRC-2, 90', conc 40",65%
same,% inhibition ApPOL 90',"DRC-2, 90', conc 80",78%
same,% inhibition ApPOL 90',"DRC-2, 90', concentration 2.5",9%
same,% inhibition ApPOL 90',"DRC-2, 90', concentration 20",44%
same,% inhibition apPOL 180',"DRC-2, 180', conc 2.5",2.37%
same,% inhibition apPOL 180',"DRC-2, 180', conc 5",9%
same,% inhibition apPOL 180',"DRC-2, 180', conc 10",20%
same,% inhibition apPOL 180',"DRC-2, 180', conc 20",33%
same,% inhibition apPOL 180',"DRC-2, 180', conc 40",57%
same,% inhibition apPOL 180',"DRC-2, 180', conc 80",80%
same,% inhibition apPOL 180',"DRC-2, 180', concentration 5",9%
same,% inhibition apPOL 180',"DRC-2, 180', concentration 10",20%
same,DNA Pol,"primary screen value, ""DNA Pol""",41
COc1cc(Cl)c(C)cc1NC(=O)Cn1ccc2c(=O)[nH]ccc21 [Molecule 33],pIC50,"supplemental file 2, sheet IC50 nontoxic compounds, Pf-apPOL",4.99
